Experimental data reported in patent publication US10449269B2, “Particle conjugated prosthetic patches and methods of making and using thereof” (Yale University, priority 2016, dated 2019).

Legend:
[1] = system: TGF-β1-induced fibronectin protein; details: cited from earlier work
[2] = biological target: T1, nodal type I receptor ALK7 (Homo sapiens, UniProt Q8NER5); details: cited from earlier work
T1 sequence (Q8NER5 21-493): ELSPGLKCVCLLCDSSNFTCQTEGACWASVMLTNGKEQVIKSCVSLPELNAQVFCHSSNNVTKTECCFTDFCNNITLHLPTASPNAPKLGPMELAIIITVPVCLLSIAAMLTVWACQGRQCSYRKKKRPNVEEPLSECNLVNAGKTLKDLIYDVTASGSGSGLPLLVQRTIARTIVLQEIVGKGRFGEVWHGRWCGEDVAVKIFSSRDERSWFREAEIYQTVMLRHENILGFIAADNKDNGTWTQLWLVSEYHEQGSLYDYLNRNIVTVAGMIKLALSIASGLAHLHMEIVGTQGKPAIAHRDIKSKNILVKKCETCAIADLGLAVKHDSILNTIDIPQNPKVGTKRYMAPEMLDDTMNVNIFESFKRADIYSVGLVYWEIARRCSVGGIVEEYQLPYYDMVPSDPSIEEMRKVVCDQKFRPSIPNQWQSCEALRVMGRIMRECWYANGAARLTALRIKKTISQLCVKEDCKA

[3] = system: TGF-β1-induced collagen Iα1 mRNA; details: cited from earlier work
[4] = system: TGF-β1-induced fibronectin mRNA; details: cited from earlier work
[5] = system: TGF-β1-induced PAI-1 mRNA; details: cited from earlier work
[6] = TGF-β1 release from NP patches in PBS (Micro BCA); format: physicochemical; details: in vitro
Experimental: Pericardial patches were covalently modified using NP loaded with TGF-β1. TGF-β1 (4 μg) was dissolved in PBS (200 μL) and added to chloroform (2 mL) containing carboxylated poly(lactic-coglycolic acid) (PLGA) (100 mg). The mixture was then added drop-wise to 5% polyvinyl alcohol (PVA) (4 mL) and sonicated three times to form NP. The NP were dispersed in 0.2% PVA solution (200 mL) to evaporate the solvent for 2 h while stirring (40 ng TGF-β1/mg NP, […]). Patches (7 mm×5 mm) were conjugated with the NP using ethyl (dimethylaminopropyl) carbodiimide/N-hydroxysuccinimide (EDC/NHS) chemistry, as discussed above. EDC (20 μmol/mL) and NHS (10 μmol/mL) were dissolved in MES solution (0.1 M; pH 5) for the conjugation. Carboxyl groups on the NP were activated using EDC (1 mL) for 30 min and substituted with NHS by adding NHS (1 mL) for 30 min. The solution pH was raised from 5 to 8 using NaOH (1 M). Patches were then placed into the activated NP suspension and incubated at 37° C. overnight. To assess TGF-β1 release from NP patches in vitro, the patches were incubated in PBS at 37° C. The supernatant was collected at the desired time points and used to quantify TGF-β1 using a Micro BCA Protein Assay Kit (Thermo Fisher Scientific).

Compound	IC50 [1]	inhibition of ALK7 [2]	IC50 [3]	IC50 [4]	IC50 [5]	duration of sustained release of TGF-β1 [6]	period in which cumulative release was highest (first days) [6]	time until which release slowly decreased [6]
NC(=O)c1ccc(-c2nc(-c3ccc4c(c3)OCO4)c(-c3ccccn3)[nH]2)cc1 [SB 431542]	22 nM	inhibits	60 nM	62 nM	50 nM	–	–	–
TGF β1: polypeptide member of the transforming growth factor beta superfamily of cytokines	–	–	–	–	–	2-3 weeks	5 days	21 days
